Data reported in patent US10087142B2, “Azetidine derivatives useful as modulators of cortical cathecolaminergic neurotransmission” (Integrative Research Laboratories Sweden AB, priority 2015, dated 2018).
Where two headings read alike, the source gives them in different places. Marks after values point to notes of the source that are not given here.

Legend:
[1] = system: monoamine transmitters (NA, DA and 5-HT); assay: In vivo brain microdialysis of monoamines in striatum and frontal cortex; design: species or system rat; settings: 50 μmol/kg s.c., rats; for response vs control in vivo at 50 µmol/kg: Rattus norvegicus, sc
Description: The microdialysis technique (See, for instance, Collin and Ungerstedt, Microdialysis: user's guide, Carnegie Medicin, Stockholm, 1988) is a well-established technique for measuring extracellular levels of neurotransmitters (Ungerstedt, J Int Med, 1991, 230; 365-73). The microdialysis technique was used to measure the effect of compounds disclosed herein upon the efflux of monoamine transmitters (NA, DA and 5-HT) in striatum and frontal cortex in conscious, freely moving rats.
Male Sprague-Dawley rats weighing 280-320 g were used throughout the experiments. Before the experiment the animals were housed in groups, maximum five animals in each cage, with free access to water and food. The animals were housed at least one week prior to surgery and use in the experiments.
A modified version (Waters et al., J Neural Transm Gen Sect, 1994, 98(1); 39-55) of the I-shaped probe (Santiago and Westerink, N-S Arch Pharmacol, 1990, 342; 407-14) with the AN69 polyacrylonitrile/sodium methyl sulfonate copolymer (HOSPAL; o.d/i.d. 310/220 μm: dialysis membrane (Gambro, Lund, Sweden) was used in the microdialysis experiments. In the dorsal striatum, probes with an exposed length of 3 mm of dialysis membrane were used and in the prefrontal cortex the corresponding length was 2.5 mm. The rats were operated under isoflurane inhalation anesthesia while mounted into a Kopf stereotaxic instrument. Coordinates were calculated relative to bregma; dorsal striatum AP+1.0, ML±2.6, DV 6.2; Pf cortex, AP 15+3.2, ML+1.2, DV −4.08°, according to Paxinos and Watson (New York, Academic Press, 1986; FIG. 8 and FIG. 14). The dialysis probe was positioned in a burr hole under stereotaxic guidance and cemented with phosphatine dental cement (DAB Dental).
The rats were housed individually in cages for 48 h before the dialysis experiments, allowing them to recover from surgery and minimizing the risk of drug interactions with the anesthetics during the following experiments. During this period the rats had free access to food and water.
On the day of the experiment the rats were connected to a micro-perfusion pump via a swivel and were replaced in the cage where they could move freely within its confinements. The perfusion medium was a Ringer's solution containing (in mmol/I): NaCl; 140, CaCl2; 1.2, KCl; 3.0, MgCl2; 1.0 (Moghaddam and Bunney. Neurochem., 1989, 53; 652-4). The pump was set to a perfusion speed of 2 μl/min and 40 μl sample volume were collected every 20 min.
The rats were perfused for at least 40 min before sampling began. Five fractions of each 20 min were collected and the last three were used for the establishment of the baseline. After collection of baseline fractions, the pharmacological challenge to the dialysis experiment started. Test compounds were administrated by injection (s.c.) in a volume of 5 ml/kg, with 0.9% NaCl (saline) as vehicle.
The analytical method were based on two chromatographic separations dedicated for amines or acids. Two chromatographic systems shared a common auto injector with a 10-port valve and two sample loops for simultaneous injection on the two systems.
The acids were separated by reversed phase chromatography while the amines were separated by reversed phase ion pairing chromatography preceded by a reverse phase separation in a column switching configuration. Three separation columns (Luna C18 (2), dp 3 μm, 2 mm i.d., Phenomenex) of different lengths were used. Electrochemical detection was accomplished on glassy carbon electrodes (MF-1000, Bioanalytical Systems, Inc.)
The aqueous mobile phase (0.6 ml/min) for the acid system contained citric acid (40 mM, dipotassium hydrogen phosphate 10 mM, methanol 8-11% (v/v) and EDTA 0.1 mM. Column length was 30 mm and detection potential relative to Ag/AgCl reference was 0.74V. […]

[2] = system: non-pre-treated Sprague-Dawley rats; assay: Locomotor activity in drug-naïve rats (behaviour test); type: in vivo, rat; settings: recorded 60 minutes, n = 5
Experimental: The effect of compounds in the present disclosure on locomotor activity in drug-naïve rats was also investigated. The animals were placed in the motility meters immediately after drug administration and locomotor activity was recorded for 60 minutes (counts/60 min±SEM). The results are presented as percent of control.
Behavioural activity was measured using eight Digiscan activity monitors (RXYZM (16) TAO, Omnitech Electronics, Columbus, Ohio, USA), connected to an Omnitech Digiscan analyzer and an Apple Macintosh computer equipped with a digital interface board (NB DIO-24, National Instruments, USA). Each activity monitor consisted of a quadratic metal frame (W×L=40 cm×40 cm) equipped with photo beam sensors. During measurements of behavioural activity, a rat was put in a transparent acrylic cage (W×L×H, 40×40×30 cm) which in turn was placed in the activity monitor. Each activity monitor was equipped with three rows of infrared photo beam sensors, each row consisting of 16 sensors. Two rows were placed along the front and the side of the floor of the cage, at a 90° angle, and the third row was placed 10 cm above the floor to measure vertical activity. Photo beam sensors were spaced 2.5 cm apart. Each activity monitor was fitted in an identical sound and light attenuating box containing a weak house light and a fan.
The computer software was written using object oriented programming (LabVIEW™, National instruments, Austin, Tex., USA).
Behavioural data from each activity monitor, representing the position (horizontal center of gravity and vertical activity) of the animal at each time, were recorded at a sampling frequency of 25 Hz and collected using a custom written LABView™ application. The data from each recording session were stored and analyzed with respect to distance traveled. Each behavioural recording session lasted 60 min, starting approximately 5 min after the injection of test compound.
Compounds disclosed herein have been tested for effects on spontaneous locomotor activity in non-pre-treated Sprague-Dawley rats (based on accumulated distance traveled 0-60 min post dosing), and with doses up to 33 μmol/kg (s.c.).

DOPAC = assay: Neurochemistry: tissue levels of DOPAC in brain regions; type: in vivo, rat; settings: 33 μmol/kg s.c., rats, 65 min before sacrifice, n = 5
Description: The change in turnover of dopamine in the terminal areas of the ascending dopaminergic projections of the mammalian brain can be illustrated by measuring of changes in biochemical indices in the brain e.g. changes in concentrations of dopamine metabolites such as 3,4-dihydroxyphenyl-acetic acid (DOPAC) in the striatum and frontal cortex.
The measurement of the tissue content of DOPAC is well established in the field of research since the 1960's. In short, male Sprague-Dawley rats are administered the test compound 60 minutes prior to decapitation. The brain is rapidly taken out and dissected. The striatum is rapidly frozen and subsequently quantitatively analyzed with respect to its content of DOPAC by means of HPLC and electrochemical detection. The number of animals used for each test compound/vehicle is 5/group.
After the behavioural activity sessions, the rats were decapitated and their brains rapidly taken out and put on an ice-cold petri-dish. The brains were dissected into a right and a left part of which the right part was analyzed for neurochemicals with HPLC and the left part was analyzed for gene expression. The limbic forebrain, the striatum, the frontal cortex, the hippocampus and the remaining hemispheral parts of each rat were dissected and frozen. Each brain part was subsequently analyzed with respect to its content of monoamines and their metabolites.
The monoamine transmitter substances (NA (noradrenaline), DA (dopamine), 5-HT (serotonin)) as well as one corresponding acid, (DOPAC (3,4-dihydroxyphenylacetic acid), were quantified in brain tissue homogenates by HPLC separations and electrochemical detection.
The analytical method is based on two chromatographic separations dedicated for amines or acids. Two chromatographic systems share a common auto injector with a 10-port valve and two sample loops for simultaneous injection on the two systems. Both systems are equipped with a reverse phase column (Luna C18 (2), dp 3 μm, 50*2 mm i.d., Phenomenex) and electrochemical detection is accomplished at two potentials on glassy carbon electrodes (MF-1000, Bioanalytical Systems, Inc.). The column effluent is passed via a T-connection to the detection cell or to a waste outlet. This is accomplished by two solenoid valves, which block either the waste or detector outlet. By preventing the chromatographic front from reaching the detector, better detection conditions are achieved. The aqueous mobile phase (0.4 ml/min) for the acid system contains citric acid 14 mM, sodium citrate 10 mM, Methanol 15% (v/v) and EDTA 0.1 mM. Detection potentials relative to Ag/AgCl reference are 0.45 and 0.60V. […] Detection potentials relative to Ag/AgCl reference are 0.45 and 0.65V.

[3] = frontal cortex dialysate, read-out: NA FC ± SEM, maximum effect compared to baseline
[4] = frontal cortex dialysate, read-out: 5-HT FC ± SEM, maximum effect compared to baseline
[5] = striatum dialysate, read-out: 5-HT Stri ± SEM, maximum effect compared to baseline
[6] = striatum dialysate, read-out: DA Stri ± SEM, maximum effect compared to baseline

Molecule `Fc1cc(F)c(F)c(C(F)C2CNC2)c1F.O=C(O)C(=O)O` (stereo not shown) (hydrate or solvate) has a melting point of 181.6 °C.

Molecule `CCCN1CC(C(F)c2cccc(F)c2F)C1.O=C(O)C(=O)O` (stereo not shown) (hydrate or solvate) has a melting point of 137.4 °C.

With `Cl.Fc1cccc(C(F)C2CNC2)c1F` (single isomer, unassigned; (+)) [Example 2, (+)-3-[(2,3-Difluorophenyl)(Fluoro)Methyl]Azetidine Hydrochloric Acid Salt] the “5-HT FC ± SEM, maximum effect compared to baseline” value ([1]; frontal cortex dialysate) was 253 ± 92^b percent of control, the “5-HT Stri ± SEM, maximum effect compared to baseline” value ([1]; striatum dialysate) was 249 ± 5^b percent of control and the “DA Stri ± SEM, maximum effect compared to baseline” value ([1]; striatum dialysate) was 149 ± 7^b percent of control. The “NA Stri ± SEM, maximum effect compared to baseline” value ([1]; striatum dialysate) was 126 ± 7^b percent of control, the response vs control in vivo at 50 µmol/kg ([1]; frontal cortex dialysate, read-out: DA FC ± SEM, maximum effect compared to baseline) was 580 ± 223% and the response vs control in vivo at 50 µmol/kg [1, 3] was 394 ± 273%. For the same molecule, the “locomotor activity, percent of control means” value ([2]; 11 μmol/kg s.c.) was 152% and the “locomotor activity, percent of control means” value ([2]; 33 μmol/kg s.c.) was 159%*.

For `CCN1CC(C(F)c2c(F)c(F)cc(F)c2F)C1.O=C(O)C(=O)O` (stereo not shown) (hydrate or solvate), the melting point was 145.9 °C.

Work on `CCCN1CC(C(F)c2cc(F)cc(F)c2F)C1.O=C(O)C(=O)O` (stereo not shown) (hydrate or solvate) yielded a melting point of 159 °C.

Molecule `CCN1CC(C(F)c2cc(F)c(F)c(F)c2)C1.O=C(O)C(=O)O` (stereo not shown) (hydrate or solvate) has a melting point of 129.8 °C.

For `Fc1ccc(F)c(C(F)C2CNC2)c1.O=C(O)C(=O)O` (stereo not shown) [Example 6, 3-[(2,5-Difluorophenyl)(Fluoro)Methyl]Azetidine Oxalate Salt], the “NA Stri ± SEM, maximum effect compared to baseline” value ([1]; striatum dialysate) was 1375^a percent of control, the response vs control in vivo at 50 µmol/kg [1, 4] was 182 ± 12% and the response vs control in vivo at 50 µmol/kg [1, 5] was 208%. The response vs control in vivo at 50 µmol/kg [1, 6] was 242%, the “DOPAC frontal cortex ± SEM” value (DOPAC; frontal cortex tissue) was 139 ± 10% of control means and the “DOPAC striatum ± SEM” value (DOPAC; striatum tissue) was 76 ± 3% of control means.

Work on `Fc1cc(F)c(C(F)C2CNC2)c(F)c1.O=C(O)C(=O)O` (stereo not shown) (hydrate or solvate) yielded a melting point of 149.6 °C.

With `Fc1cc(F)c(F)c(C(F)C2CNC2)c1.O=C(O)C(=O)O` (stereo not shown) [Example 9, 3-[Fluoro(2,3,5-Trifluorophenyl)Methyl]Azetidine Oxalate Salt] the “NA Stri ± SEM, maximum effect compared to baseline” value ([1]; striatum dialysate) was 860^a percent of control, the response vs control in vivo at 50 µmol/kg [1, 4] was 207 ± 21% and the response vs control in vivo at 50 µmol/kg [1, 3] was 840 ± 122%. The response vs control in vivo at 50 µmol/kg [1, 5] was 231 ± 106% and the response vs control in vivo at 50 µmol/kg [1, 6] was 127 ± 13%.
